{"source": "patent US20060210645A1", "about": "“Pharmaceutically acceptable carrier for ophthalmic compositions” (priority 2005, published 2006)", "origin": "cited, not measured here", "key": {"[1]": {"conditions": "relative to methyltestosterone"}, "[2]": {"conditions": "relative to methyltestosterone", "remark": "listed apart in the source"}}}
{"smiles": "C[C@]12COC(=O)C[C@@H]1CC[C@@H]1[C@@H]2CC[C@@]2(C)[C@H]1CC[C@]2(C)O", "note": "[oxandrolone, 17 alpha-methyl-17β-hydroxy-2-oxa-5 alpha-androstan-3-one]", "values": [{"measurement": "androgenic activity, % of that of methyltestosterone", "setting": "[1]", "value": 24, "unit": "%"}, {"measurement": "anabolic activity, % of that of methyltestosterone", "setting": "[2]", "value": 322, "unit": "%"}]}
